From PubChem BioAssay AID248 (DTP/NCI, 2004)
Where “and” joins values, the source holds several entries; their conditions need not be identical. Identical values can stand only once. Inconclusive results and toxic doses are left out. Rule as the data show it: active = T/C of 150% or more; inactive = T/C below 125%.

System: L1210 leukemia ip in BDF1 mice, survival T/C
Assay: NCI In Vivo Anticancer Drug Screen. Data for tumor model L1210 Leukemia (intraperitoneal) in B6D2F1 (BDF1) mice
Conditions: endpoint: mean survival time, higher = longer survival
How it was run: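 Tumor cells were implanted, animals were treated, and survival was followed. The result divides the treated measurement by the vehicle-control measurement.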

[1] = dose: 100.0 mg/kg/injection, schedule: Q01DX009 (ip), vehicle: Klucel (hydroxypropylcellulose) (HPC)
[2] = dose: 200.0 mg/kg/injection, schedule: Q01DX009 (ip), vehicle: Klucel (hydroxypropylcellulose) (HPC)
[3] = dose: 400.0 mg/kg/injection, schedule: Q01DX009 (ip), vehicle: Klucel (hydroxypropylcellulose) (HPC)
[4] = dose: 100.0 mg/kg/injection, schedule: Q04DX002 (ip), vehicle: saline with Tween-80
[5] = dose: 100.0 mg/kg/injection, schedule: Q04DX003 (ip), vehicle: saline with Tween-80
[6] = dose: 200.0 mg/kg/injection, schedule: Q04DX002 (ip), vehicle: saline with Tween-80
[7] = dose: 200.0 mg/kg/injection, schedule: Q04DX003 (ip), vehicle: saline with Tween-80
[8] = dose: 400.0 mg/kg/injection, schedule: Q04DX002 (ip), vehicle: saline with Tween-80
[9] = dose: 400.0 mg/kg/injection, schedule: Q04DX003 (ip), vehicle: saline with Tween-80
[10] = dose: 100.0 mg/kg/injection, schedule: Q01DX009 (ip), vehicle: saline with Tween-80
[11] = dose: 200.0 mg/kg/injection, schedule: Q01DX009 (ip), vehicle: saline with Tween-80
[12] = dose: 100.0 mg/kg/injection, schedule: Q04DX002 (ip), vehicle: Klucel (hydroxypropylcellulose) (HPC)
[13] = dose: 200.0 mg/kg/injection, schedule: Q04DX002 (ip), vehicle: Klucel (hydroxypropylcellulose) (HPC)
[14] = dose: 400.0 mg/kg/injection, schedule: Q04DX002 (ip), vehicle: Klucel (hydroxypropylcellulose) (HPC)
[15] = dose: 100.0 mg/kg/injection, schedule: Q04DX003 (ip), vehicle: Klucel (hydroxypropylcellulose) (HPC)
[16] = dose: 200.0 mg/kg/injection, schedule: Q04DX003 (ip), vehicle: Klucel (hydroxypropylcellulose) (HPC)

Measured: T/C

SC1CC[N-]CC1.SC1CC[N-]CC1.[Cl][Pt+2][Cl]
inactive: dose: 25.0 mg/kg/injection, schedule: Q01DX009 (ip), vehicle: water 96 % of control | dose: 50.0 mg/kg/injection, schedule: Q01DX009 (ip), vehicle: water 101 % of control | dose: 100.0 mg/kg/injection, schedule: Q01DX009 (ip), vehicle: water 96 % of control | dose: 100.0 mg/kg/injection, schedule: Q04DX003 (ip), vehicle: water 101 % of control | dose: 200.0 mg/kg/injection, schedule: Q01DX009 (ip), vehicle: water 98 % of control | dose: 200.0 mg/kg/injection, schedule: Q04DX003 (ip), vehicle: water 97 % of control

NC1CC[N-]CC1.NC1CC[N-]CC1.[Cl][Pt+2][Cl]
inactive: dose: 50.0 mg/kg/injection, schedule: Q04DX003 (ip), vehicle: saline 108 % of control | dose: 100.0 mg/kg/injection, schedule: Q01DX009 (ip), vehicle: saline 94 % of control | dose: 100.0 mg/kg/injection, schedule: Q04DX003 (ip), vehicle: saline 102 % of control | dose: 200.0 mg/kg/injection, schedule: Q01DX009 (ip), vehicle: saline 100 % of control | dose: 200.0 mg/kg/injection, schedule: Q04DX003 (ip), vehicle: saline 108 % of control | dose: 400.0 mg/kg/injection, schedule: Q04DX003 (ip), vehicle: saline 100 % of control

S=c1cccc[nH]1.[Pb]
inactive: dose: 100.0 mg/kg/injection, schedule: Q04DX002 (ip), vehicle: gum acacia 103 % of control | dose: 200.0 mg/kg/injection, schedule: Q04DX002 (ip), vehicle: gum acacia 100 % of control

On1ccccc1=S
inactive: dose: 6.25 mg/kg/injection, schedule: Q04DX002 (ip), vehicle: saline with Tween-80 100 % of control | dose: 12.5 mg/kg/injection, schedule: Q04DX002 (ip), vehicle: saline with Tween-80 111 % of control | dose: 25.0 mg/kg/injection, schedule: Q04DX002 (ip), vehicle: saline with Tween-80 100 % of control

Oc1ccc(/C=N/NC(=S)NN2CCOCC2)nc1
inactive: dose: 6.25 mg/kg/injection, schedule: Q01DX009 (ip), vehicle: saline with Tween-80 108 % of control | dose: 12.5 mg/kg/injection, schedule: Q01DX009 (ip), vehicle: saline with Tween-80 116 % of control | dose: 22.0 mg/kg/injection, schedule: Q04DX002 (ip), vehicle: saline with Tween-80 108 % of control | dose: 25.0 mg/kg/injection, schedule: Q01DX009 (ip), vehicle: saline with Tween-80 108 % of control and 119 % of control | dose: 33.0 mg/kg/injection, schedule: Q04DX002 (ip), vehicle: saline with Tween-80 101 % of control | dose: 50.0 mg/kg/injection, schedule: Q04DX002 (ip), vehicle: saline with Tween-80 111 % of control

NS(=O)(=O)c1ccc(NC(=O)Nc2ccccc2C(F)(F)F)cc1
inactive: [1] 100 % of control | [2] 89 % of control | [3] 93 % of control

O=C1NC(=O)C2CCCCC12 (configuration not stated)
inactive: [4] 90 % of control | [5] 96 % of control | [6] 121 % of control | [7] 104 % of control | [8] 107 % of control | [9] 104 % of control

CCCCCC#CC(=O)OCCCC
inactive: [4] 102 % of control | [6] 94 % of control | [8] 108 % of control

CCOC(=O)C(C#N)=P(c1ccccc1)(c1ccccc1)c1ccccc1
inactive: dose: 50.0 mg/kg/injection, schedule: Q01DX009 (ip), vehicle: saline with Tween-80 96 % of control | [10] 88 % of control | [11] 96 % of control

Cc1ccc(S(=O)(=O)N(CCCc2c(C)nc(N)[nH]c2=O)Cc2ccc(N)cc2)cc1
inactive: [12] 91 % of control | [13] 88 % of control | [14] 112 % of control

CNc1ccc(/C=C2\C=Cc3ccccc32)cc1I
inactive: dose: 100.0 mg/kg/injection, schedule: Q01DX001 (ip), vehicle: carboxymethylcellulose (CMC) 95 % of control | dose: 200.0 mg/kg/injection, schedule: Q01DX001 (ip), vehicle: carboxymethylcellulose (CMC) 95 % of control | dose: 400.0 mg/kg/injection, schedule: Q01DX001 (ip), vehicle: carboxymethylcellulose (CMC) 101 % of control

CN(C)/C=N\c1ncnc2c1ncn2C1OC(CO)C(O)C1O (configuration not stated)
inactive: [4] 102 % of control | [6] 98 % of control | [8] 102 % of control

C[CH2][Ge]([CH2]C)([CH2]C)[CH2]CO
inactive: dose: 5.0 mg/kg/injection, schedule: Q04DX002 (ip), vehicle: saline with Tween-80 103 % of control | dose: 10.0 mg/kg/injection, schedule: Q04DX002 (ip), vehicle: saline with Tween-80 106 % of control | dose: 20.0 mg/kg/injection, schedule: Q04DX002 (ip), vehicle: saline with Tween-80 103 % of control

CCOC(=O)Cc1nc2ccccc2[nH]c1=O
inactive: dose: 50.0 mg/kg/injection, schedule: Q04DX002 (ip), vehicle: Klucel (hydroxypropylcellulose) (HPC) 107 % of control | [12] 96 % of control | [13] 96 % of control

NC1CCCCC1.[I][Pb]([I])([I])[I]
inactive: [5] 106 % of control | [7] 95 % of control | [9] 96 % of control

Nc1ncnc2nn(C3OC(CO)C(O)C3O)nc12 (configuration not stated)
inactive: dose: 75.0 mg/kg/injection, schedule: Q01DX001 (ip), vehicle: saline 105 % of control | dose: 150.0 mg/kg/injection, schedule: Q01DX001 (ip), vehicle: saline 105 % of control | dose: 300.0 mg/kg/injection, schedule: Q01DX001 (ip), vehicle: saline 108 % of control

O=[N+]([O-])c1cccc(C=Nc2ccccc2)c1
inactive: [15] 112 % of control | [16] 96 % of control | dose: 400.0 mg/kg/injection, schedule: Q04DX003 (ip), vehicle: Klucel (hydroxypropylcellulose) (HPC) 96 % of control

Nc1nnnn1-c1cccc(Cl)c1
inactive: [5] 96 % of control | [7] 96 % of control | [9] 94 % of control

CN1N=C(c2ccccc2)CC1=O
inactive: dose: 100.0 mg/kg/injection, schedule: Q01DX001 (ip), vehicle: Klucel (hydroxypropylcellulose) (HPC) 103 % of control | dose: 200.0 mg/kg/injection, schedule: Q01DX001 (ip), vehicle: Klucel (hydroxypropylcellulose) (HPC) 108 % of control | dose: 400.0 mg/kg/injection, schedule: Q01DX001 (ip), vehicle: Klucel (hydroxypropylcellulose) (HPC) 97 % of control

N#Cc1cn(-c2cccc(Cl)c2)c2ncccc12
inactive: dose: 25.0 mg/kg/injection, schedule: Q01DX001 (ip), vehicle: saline 103 % of control | dose: 50.0 mg/kg/injection, schedule: Q01DX001 (ip), vehicle: saline 100 % of control | dose: 100.0 mg/kg/injection, schedule: Q01DX001 (ip), vehicle: saline 103 % of control | dose: 200.0 mg/kg/injection, schedule: Q01DX001 (ip), vehicle: saline 87 % of control | dose: 400.0 mg/kg/injection, schedule: Q01DX001 (ip), vehicle: saline 91 % of control

COc1ccc(Cl)cc1NC(=O)C(Cl)(Cl)Cl
inactive: dose: 50.0 mg/kg/injection, schedule: Q01DX001 (ip), vehicle: saline with Tween-80 102 % of control | dose: 100.0 mg/kg/injection, schedule: Q01DX001 (ip), vehicle: saline with Tween-80 88 % of control and 92 % of control | [10] 94 % of control | [4] 100 % of control and 101 % of control | dose: 200.0 mg/kg/injection, schedule: Q01DX001 (ip), vehicle: saline with Tween-80 91 % of control | [11] 95 % of control and 89 % of control | [6] 93 % of control and 98 % of control | dose: 400.0 mg/kg/injection, schedule: Q01DX001 (ip), vehicle: saline with Tween-80 89 % of control | [8] 93 % of control and 94 % of control

Cn1nc(NN)c2cccnc21
inactive: dose: 75.0 mg/kg/injection, schedule: Q01DX001 (ip), vehicle: other 103 % of control | dose: 150.0 mg/kg/injection, schedule: Q01DX001 (ip), vehicle: other 104 % of control

Cc1ccc(N=Nc2ccc(C)cc2NC(=O)C2CC2)cc1
inactive: [1] 97 % of control | [2] 97 % of control | [3] 97 % of control

O=C(COc1ccc(Cl)cc1)Nc1ccccc1
inactive: [12] 109 % of control | [13] 98 % of control | [14] 103 % of control

O=C(O)c1ccc2c(c1)Sc1ccccc1N2
inactive: [15] 95 % of control | [16] 95 % of control
